Literature values, collected in US20140234430A1, “PHARMACEUTICAL METHODS AND TOPICAL COMPOSITIONS CONTAINING ACITRETIN” (DOUGLAS PHARMACEUTICALS LTD., priority 2011, published 2014).

Compound: COc1cc(C)c(/C=C/C(C)=C/C=C/C(C)=C/C(=O)O)c(C)c1C [acitretin, (2E,4E,6E,8E)-9-(4-methoxy-2,3,6-trimethylphenyl)-3,7-dimethylnona-2,4,6,8-tetraenoic acid]
- Solubility in alcohols (suitable alcohols): quite poorly soluble
- Solubility in water (water): very poorly soluble
